Literature values in patent publication US8853187B2, “Composition comprising bisphosphonates for prevention and/or treatment of metabolic diseases of bones, process for preparing such composition and use thereof” (Gador S.A., priority 2001, dated 2014).

Conditions: ranking within the group of bisphosphonates, in words

## CN(C)CCC(O)(P(=O)(O)O)P(=O)(O)O [Olpadronate]
  solubility relative to other bisphosphonates: most soluble
